# Results taken from PubChem BioAssay (NCI).
#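 Compound exposure: 48 hours, 5 concentrations, 96-well plates. At the GI50, growth is halved. Definition used: TGI = concentration required for complete inhibition of growth.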
# Columns and labels:
# Assay in all cases: NCI anticancer screen, dose series, 48 h
# SK-MEL-5 melanoma = test system: SK-MEL-5 melanoma
# SR leukemia = test system: SR leukemia
# SNB-19 CNS = test system: SNB-19 CNS
# MCF7 breast = test system: MCF7 breast
# A549 NSCLC = test system: A549 NSCLC
# OVCAR-8 ovarian = test system: OVCAR-8 ovarian
# A498 renal = test system: A498 renal
# LOX IMVI melanoma = test system: LOX IMVI melanoma
# COLO 205 colon = test system: COLO 205 colon
# M14 melanoma = test system: M14 melanoma
# NCI/ADR-RES ovarian = test system: NCI/ADR-RES ovarian
# NCI-H522 lung = test system: NCI-H522 lung
# PC-3 prostate = test system: PC-3 prostate
# RXF 393 renal = test system: RXF 393 renal
# U251 CNS = test system: U251 CNS
# HOP-62 NSCLC = test system: HOP-62 NSCLC
# 786-0 renal = test system: 786-0 renal
# SW-620 colon = test system: SW-620 colon
# SF-295 CNS = test system: SF-295 CNS
# HS 578T breast = test system: HS 578T breast
# KM12 colon = test system: KM12 colon
# SK-MEL-2 melanoma = test system: SK-MEL-2 melanoma
# HL-60(TB) leukemia = test system: HL-60(TB) leukemia
# OVCAR-4 ovarian = test system: OVCAR-4 ovarian
# MDA-MB-231 breast = test system: MDA-MB-231 breast
# NCI-H23 lung = test system: NCI-H23 lung
# ACHN renal = test system: ACHN renal
# NCI-H460 lung = test system: NCI-H460 lung
# SNB-75 CNS = test system: SNB-75 CNS
# SF-539 CNS = test system: SF-539 CNS
# MOLT-4 leukemia = test system: MOLT-4 leukemia
# DU-145 prostate = test system: DU-145 prostate
# UO-31 renal = test system: UO-31 renal
# HCT-15 colon = test system: HCT-15 colon
# IGROV1 ovarian = test system: IGROV1 ovarian
# CCRF-CEM leukemia = test system: CCRF-CEM leukemia
# HOP-92 NSCLC = test system: HOP-92 NSCLC
# MALME-3M melanoma = test system: MALME-3M melanoma
# SF-268 CNS = test system: SF-268 CNS
# TK-10 renal = test system: TK-10 renal
# OVCAR-5 ovarian = test system: OVCAR-5 ovarian
# SK-OV-3 ovarian = test system: SK-OV-3 ovarian
# MDA-MB-435 = test system: MDA-MB-435
# OVCAR-3 ovarian = test system: OVCAR-3 ovarian
# K-562 leukemia = test system: K-562 leukemia
# UACC-62 melanoma = test system: UACC-62 melanoma
# NCI-H226 lung = test system: NCI-H226 lung
# RPMI-8226 leukemia = test system: RPMI-8226 leukemia
# HT29 colon = test system: HT29 colon
# UACC-257 melanoma = test system: UACC-257 melanoma
# HCT-116 colon = test system: HCT-116 colon
# BT-549 breast = test system: BT-549 breast
# HCC-2998 colon = test system: HCC-2998 colon
# SN12C renal = test system: SN12C renal
# CAKI-1 renal = test system: CAKI-1 renal
# SK-MEL-28 melanoma = test system: SK-MEL-28 melanoma
# T-47D breast = test system: T-47D breast
# EKVX NSCLC = test system: EKVX NSCLC
smiles,measurement,setting,value
COc1ccc2c(c1)N(CCO)C1=C(C(=O)OC1)C2c1cc(OC)c(OC)c(OC)c1 (stereo not drawn),GI50,SK-MEL-5 melanoma,17.1 nM
same,TGI,SK-MEL-5 melanoma,71.4 nM
same,GI50,SR leukemia,25.2 nM
same,TGI,SR leukemia,> 50000 nM
same,GI50,SNB-19 CNS,42.9 nM
same,TGI,SNB-19 CNS,> 50000 nM
same,GI50,MCF7 breast,19.5 nM
same,TGI,MCF7 breast,> 50000 nM
same,GI50,A549 NSCLC,26.6 nM
same,TGI,A549 NSCLC,> 50000 nM
same,GI50,OVCAR-8 ovarian,19.9 nM
same,TGI,OVCAR-8 ovarian,181 nM
same,GI50,A498 renal,14.7 nM
same,TGI,A498 renal,61.6 nM
same,GI50,LOX IMVI melanoma,25.8 nM
same,TGI,LOX IMVI melanoma,> 50000 nM
same,GI50,COLO 205 colon,15 nM
same,TGI,COLO 205 colon,38 nM
same,GI50,M14 melanoma,21.3 nM
same,TGI,M14 melanoma,> 50000 nM
same,GI50,NCI/ADR-RES ovarian,78.7 nM
same,TGI,NCI/ADR-RES ovarian,2700 nM
same,GI50,NCI-H522 lung,10.9 nM
same,TGI,NCI-H522 lung,28.6 nM
same,GI50,PC-3 prostate,24.7 nM
same,TGI,PC-3 prostate,> 50000 nM
same,GI50,RXF 393 renal,12.8 nM
same,TGI,RXF 393 renal,> 50000 nM
same,GI50,U251 CNS,16.5 nM
same,TGI,U251 CNS,> 50000 nM
same,GI50,HOP-62 NSCLC,26.5 nM
same,TGI,HOP-62 NSCLC,> 50000 nM
same,GI50,786-0 renal,67.9 nM
same,TGI,786-0 renal,> 50000 nM
same,GI50,SW-620 colon,19.6 nM
same,TGI,SW-620 colon,> 50000 nM
same,GI50,SF-295 CNS,14 nM
same,TGI,SF-295 CNS,> 50000 nM
same,GI50,HS 578T breast,27.9 nM
same,TGI,HS 578T breast,> 50000 nM
same,GI50,KM12 colon,17.8 nM
same,GI50,SK-MEL-2 melanoma,26.7 nM
same,TGI,SK-MEL-2 melanoma,18300 nM
same,GI50,HL-60(TB) leukemia,15 nM
same,GI50,OVCAR-4 ovarian,31 nM
same,TGI,OVCAR-4 ovarian,> 50000 nM
same,GI50,MDA-MB-231 breast,55 nM
same,TGI,MDA-MB-231 breast,246 nM
same,GI50,NCI-H23 lung,28.1 nM
same,TGI,NCI-H23 lung,> 50000 nM
same,GI50,ACHN renal,54.9 nM
same,TGI,ACHN renal,> 50000 nM
same,GI50,NCI-H460 lung,19.6 nM
same,TGI,NCI-H460 lung,> 50000 nM
same,GI50,SNB-75 CNS,19.8 nM
same,TGI,SNB-75 CNS,> 50000 nM
same,GI50,SF-539 CNS,17.6 nM
same,TGI,SF-539 CNS,> 50000 nM
same,GI50,MOLT-4 leukemia,93.8 nM
same,TGI,MOLT-4 leukemia,> 50000 nM
same,GI50,DU-145 prostate,26.1 nM
same,TGI,DU-145 prostate,188 nM
same,GI50,UO-31 renal,183 nM
same,TGI,UO-31 renal,> 50000 nM
same,GI50,HCT-15 colon,62.2 nM
same,TGI,HCT-15 colon,> 50000 nM
same,GI50,IGROV1 ovarian,36.2 nM
same,TGI,IGROV1 ovarian,> 50000 nM
same,GI50,CCRF-CEM leukemia,23.1 nM
same,TGI,CCRF-CEM leukemia,> 50000 nM
same,GI50,HOP-92 NSCLC,86.1 nM
same,TGI,HOP-92 NSCLC,> 50000 nM
same,GI50,MALME-3M melanoma,28.7 nM
same,TGI,MALME-3M melanoma,> 50000 nM
same,GI50,SF-268 CNS,33 nM
same,TGI,SF-268 CNS,> 50000 nM
same,GI50,TK-10 renal,26.4 nM
same,TGI,TK-10 renal,> 50000 nM
same,GI50,OVCAR-5 ovarian,61.4 nM
same,TGI,OVCAR-5 ovarian,> 50000 nM
same,GI50,SK-OV-3 ovarian,23.1 nM
same,TGI,SK-OV-3 ovarian,> 50000 nM
same,GI50,MDA-MB-435,< 10.8 nM
same,TGI,MDA-MB-435,27.2 nM
same,GI50,OVCAR-3 ovarian,13.3 nM
same,TGI,OVCAR-3 ovarian,32.2 nM
same,GI50,K-562 leukemia,19.6 nM
same,TGI,K-562 leukemia,> 50000 nM
same,GI50,UACC-62 melanoma,20.8 nM
same,TGI,UACC-62 melanoma,> 50000 nM
same,GI50,NCI-H226 lung,22.8 nM
same,TGI,NCI-H226 lung,> 50000 nM
same,GI50,RPMI-8226 leukemia,28.7 nM
same,TGI,RPMI-8226 leukemia,> 50000 nM
same,GI50,HT29 colon,14.1 nM
same,TGI,HT29 colon,38.9 nM
same,GI50,UACC-257 melanoma,22.6 nM
same,TGI,UACC-257 melanoma,> 50000 nM
same,GI50,HCT-116 colon,17.4 nM
same,GI50,BT-549 breast,91.9 nM
same,TGI,BT-549 breast,> 50000 nM
same,GI50,HCC-2998 colon,63.9 nM
same,TGI,HCC-2998 colon,> 50000 nM
same,GI50,SN12C renal,60.9 nM
same,TGI,SN12C renal,> 50000 nM
same,GI50,CAKI-1 renal,85.2 nM
same,TGI,CAKI-1 renal,> 50000 nM
CN(C)c1ccc(-c2[nH]c(=O)c3ccccc3[n+]2C)cc1,TGI,SK-MEL-5 melanoma,> 100000 nM
same,TGI,SR leukemia,> 100000 nM
same,TGI,SNB-19 CNS,> 100000 nM
same,TGI,MCF7 breast,> 100000 nM
same,TGI,A549 NSCLC,> 100000 nM
same,TGI,OVCAR-8 ovarian,> 100000 nM
same,TGI,A498 renal,> 100000 nM
same,TGI,COLO 205 colon,> 100000 nM
same,TGI,M14 melanoma,> 100000 nM
same,TGI,NCI/ADR-RES ovarian,> 100000 nM
same,TGI,SK-MEL-28 melanoma,> 100000 nM
same,TGI,RXF 393 renal,> 100000 nM
same,TGI,U251 CNS,> 100000 nM
same,TGI,HOP-62 NSCLC,> 100000 nM
same,TGI,T-47D breast,> 100000 nM
same,TGI,786-0 renal,> 100000 nM
same,TGI,SW-620 colon,> 100000 nM
same,TGI,SF-295 CNS,> 100000 nM
same,TGI,HS 578T breast,> 100000 nM
same,TGI,KM12 colon,> 100000 nM
same,TGI,HL-60(TB) leukemia,> 100000 nM
same,TGI,OVCAR-4 ovarian,> 100000 nM
same,TGI,MDA-MB-231 breast,> 100000 nM
same,TGI,NCI-H23 lung,> 100000 nM
same,TGI,ACHN renal,> 100000 nM
same,TGI,NCI-H460 lung,> 100000 nM
same,TGI,SNB-75 CNS,> 100000 nM
same,TGI,SF-539 CNS,> 100000 nM
same,TGI,MOLT-4 leukemia,> 100000 nM
same,TGI,DU-145 prostate,> 100000 nM
same,TGI,UO-31 renal,> 100000 nM
same,TGI,HCT-15 colon,> 100000 nM
same,TGI,IGROV1 ovarian,> 100000 nM
same,TGI,CCRF-CEM leukemia,> 100000 nM
same,TGI,HOP-92 NSCLC,> 100000 nM
same,TGI,MALME-3M melanoma,> 100000 nM
same,TGI,SF-268 CNS,> 100000 nM
same,TGI,TK-10 renal,> 100000 nM
same,TGI,OVCAR-5 ovarian,> 100000 nM
same,TGI,SK-OV-3 ovarian,> 100000 nM
same,TGI,MDA-MB-435,> 100000 nM
same,TGI,K-562 leukemia,> 100000 nM
same,TGI,EKVX NSCLC,> 100000 nM
same,TGI,UACC-62 melanoma,> 100000 nM
same,TGI,NCI-H226 lung,> 100000 nM
same,TGI,RPMI-8226 leukemia,> 100000 nM
same,TGI,HT29 colon,> 100000 nM
same,TGI,UACC-257 melanoma,> 100000 nM
same,TGI,HCT-116 colon,> 100000 nM
same,TGI,HCC-2998 colon,> 100000 nM
same,TGI,SN12C renal,> 100000 nM
